Test results: patent US11549123B2, “Plant EPSP synthases and methods of use” (PIONEER HI-BRED INTERNATIONAL, INC., priority 2015, dated 2023)

Target: T1, Zea mays EPSPS variant Zm-H6 (868-H6) with A36G (H6-A36G) (Zea mays, UniProt O24566, A1R/A35G/A3W/A415G/A71Q/D401G/E301S/E390G/G101A/I207L/K83R/L97C/T278A/T360S/T440Q/V437R)
T1 sequence (O24566 with tags, fused parts or gaps A1R/A3W/A35G/A71Q/K83R/L97C/G101A/I207L/T278A/E301S/T360S/E390G/D401G/A415G/V437R/T440Q): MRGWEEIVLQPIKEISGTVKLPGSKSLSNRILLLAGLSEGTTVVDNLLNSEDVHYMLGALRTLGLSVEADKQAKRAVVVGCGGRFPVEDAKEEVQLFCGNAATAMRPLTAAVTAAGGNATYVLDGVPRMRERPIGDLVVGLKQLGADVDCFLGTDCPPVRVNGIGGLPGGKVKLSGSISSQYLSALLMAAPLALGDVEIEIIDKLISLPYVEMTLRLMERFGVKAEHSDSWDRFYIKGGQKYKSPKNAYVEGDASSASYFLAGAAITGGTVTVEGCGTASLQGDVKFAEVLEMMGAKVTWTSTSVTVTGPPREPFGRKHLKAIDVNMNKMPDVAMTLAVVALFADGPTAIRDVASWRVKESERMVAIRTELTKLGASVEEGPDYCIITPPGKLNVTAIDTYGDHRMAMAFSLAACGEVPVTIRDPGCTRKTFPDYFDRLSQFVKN
Experiment: Substrate saturation kinetic analysis with glyphosate, H6-A36G
Type: biochemical

For `O=C(O)CNCP(=O)(O)O` [glyphosate, N-phosphonomethylglycine], the Ki was 454 µM and the “(kcat/KM)*KI” value (substrate saturation, H6-A36G) was 3630.
